Results published in patent US9790207B2, “Pan-genomic inhibitors of NS5A protein encoded by HCV, pharmaceutical compositions, intermediates for inhibitor synthesis, and their synthesis and application methods” (priority 2015, dated 2017).
Where a name gives a salt, the structure may show the parent alone. Read-outs that look alike come from different tables or passages of the source.

How the values were obtained:
[1] = test system: HCV gT3a replicon; assay: HCV replicon assay, gT3a; assay type: cell-based, Hepatitis C virus (HCV)
Method: (§1) The HCV replicon assay was used to determine the antiviral activity of compounds of general formula 2 (test compounds). The test cell line used in the HCV Replicon Assay was the human hepatoma cell line Huh7 incorporating the HCV replicons synthesized by an outside vendor.
(§2) 96-well plates were seeded with cells at a density of 7.5×10^3 cells per well in 50 μl of assay media. The compound stock solution was made up freshly in an assay medium (DMEM 1×, Cellgro; cat. #10-013-CV) as a 2× stock. A total of 11 serial 3-fold dilutions of test compounds were prepared from the 2× stock in the assay media ranging from 20 nM-0.2 pM final concentrations. At least 4 hours after seeding the cells, compound treatment was initiated by adding 50 μl of compound dilution to the plates. The final concentrations of compound therefore ranged from 10 nM to 0.1 pM when diluted 1:1 in culture media. The final DMSO concentration was 0.5%. Cells and inhibitors were incubated for 3 days at 37° C./5% CO2. The media was removed from the plates by gentle tapping. The cells were fixed with 100 μl 1:1 acetone:methanol for 1 minute, washed three times with PBS buffer, and then blocked with 150 μl/well 10% Fetal Bovine Serum (FBS) in PBS for 1 hour at room temperature. The cells were then washed three times with PBS buffer and incubated with 100 μl/well anti-hepatitis C core mAb (Affinity BioReagents; cat. # MA1-080, 1 mg/ml stock diluted 1:4,000 in 10% FBS-PBS) for 2 hours at 37° C. Then, the cells were washed three times with PBS and incubated with 100 μl/well HRP-Goat Anti-Mouse antibody (diluted 1:3.500 in 10% FBS-PBS) for 1 hour at 37° C. The cells were then washed three times with PBS and developed with an OPD solution, 100 μl/well (1 OPD tablet+12 ml citrate/phosphate buffer+5 μl 30% H2O2 per plate), for 30 minutes in the dark at room temperature. The reaction was stopped with 2N H2SO4 (100 μl/well), and the absorbance was measured at A490 X on a Victor^3 V 1420 multilabel counter (Perkin Elmer).

[2] = test system: HCV gT1b replicon; assay: HCV replicon assay, gT1b; assay type: cell-based, Hepatitis C virus (HCV); conditions: Huh7 replicon cells, mean value
Method: as §1, §2

[3] = Cytotoxicity, cell viability by ATPLite Kit; assay type: cell-based, human; conditions: human, Huh7 cells (human hepatoma cell line), 10% FBS, maximal inhibition, read-out: Cytotox gT1b 10% FBS max. inh.
Method: (§3) The cytotoxicity of the test compounds was studied in parallel using the same cell line, Huh7. Cell viability was determined using the ATPLite Kit (Perkin-Elmer, Boston, USA), according to manufacturer's instructions. 96-well black/transparent bottom plates were seeded with cells at a density of 7.5×10^3 cells per well in 50 μl medium. After 18 hours, compound treatment was initiated by adding 50 μl of compound dilution into the plates. Each compound dilution was tested in triplicates. The cells and inhibitors were then incubated for 96 hours at 37° C./5% CO2. The plates were washed twice with PBS (0.2 ml/well), and then lysed by adding lysis buffer, 0.05 ml/well (all reagents were included with the ATPLite Kit). After rocking for 5 min on a rocking platform, substrate buffer was added (0.05 ml/well). After additional 5-min incubation, the plates were kept in dark for 10 min, and the luminescence was read using TopCount NXT (Packard, Perkin Elmer). CC50 values for all test compounds were determined using XLfit 4.1 software (Table 2).

[4] = test system: HCV gT4a replicon; assay: HCV replicon assay, gT4a; assay type: cell-based, Hepatitis C virus (HCV)
Method: as §1, §2

[5] = test system: HCV gT2a replicon; assay: HCV replicon assay, gT2a; assay type: cell-based, Hepatitis C virus (HCV); conditions: Huh7 replicon cells, mean
Method: as §1, §2

[6] = test system: HCV gT1a replicon; assay: HCV replicon assay, gT1a; assay type: cell-based, Hepatitis C virus (HCV); conditions: Huh7 replicon cells, mean
Method: as §1, §2

[7] = test system: HCV gT5a replicon; assay: HCV replicon assay, gT5a; assay type: cell-based, Hepatitis C virus (HCV)
Method: as §1, §2

[8] = Bioavailability of new inhibitors in rats; conditions: rat, in vivo
[9] = test system: human hepatoma cell line Huh7; assay: Cytotoxicity, cell viability by ATPLite Kit; assay type: cell-based; conditions: 96 hours, maximal inhibition
Method: as §3

[10] = test system: HCV Genotype NS5A GT2a; conditions: known inhibitors, literature values, cited from earlier work
[11] = test system: HCV Genotype NS5A GT1b; conditions: known inhibitors, literature values; cited from earlier work
[12] = known inhibitors, literature values; cited from earlier work
[13] = test system: HCV Genotype NS5A GT3a; conditions: known inhibitors, literature values, cited from earlier work
[14] = test system: HCV Genotype NS5A GT5a; conditions: known inhibitors, literature values; cited from earlier work
[15] = test system: HCV Genotype NS5A GT1a; conditions: known inhibitors, literature values; cited from earlier work
[16] = test system: HCV Genotype NS5A GT4a; conditions: known inhibitors, literature values; cited from earlier work
[17] = Hepatitis C virus, GT3A, Huh-7, Huh7 replicon cells, mean, read-out: gT3a, EC50 (pM) mean
[18] = Hepatitis C virus, GT1B, Huh-7, 10% FBS, read-out: gT1b 10% FBS, EC50 (pM) mean
[19] = Hepatitis C virus, GT1B, Huh-7, 40% NHS, read-out: gT1b 40% NHS, EC50 (pM) mean
[20] = Hepatitis C virus, GT4A, Huh-7, read-out: gT4a, EC50 (pM) mean
[21] = Hepatitis C virus, GT5A, Huh-7, read-out: gT5a, EC50 (pM) mean

Row | SMILES | EC50 [1, 17] [pM] | EC50 [2, 18] [pM] | EC50 [2, 19] [pM] | inhibition at 96 h [3] [%] | EC50 [4, 20] [pM] | EC50 ([5]; Hepatitis C virus, GT2A, Huh-7) [pM] | EC50 ([6]; Hepatitis C virus, GT1A, Huh-7) [pM] | EC50 [7, 21] [pM] | EC50 [10] [pM] | EC50 [11] [pM] | EC50 [15] [pM] | EC50 [16] [pM] | other results
1 | COC(=O)N[C@H](C(=O)N1CCC[C@H]1c1ncc(-c2ccc(C#CC#Cc3cnc([C@@H]4CCCN4C(=O)[C@H](NC(=O)OC)c4ccccc4)[nH]3)c(-c3ccccc3)c2)[nH]1)C(C)C.Cl.Cl [2(7)•2HCl, [(S)-1-((S)-2-{5-[6-(4-{2-[(S)-1-((R)-2-Methoxycarbonylamino-2-phenyl-acetyl)-pyrrolidin-2-yl]-3H-imidazol-4-yl}-buta-1,3-diynyl)-biphenyl-3-yl]-1H-imidazol-2-yl}-pyrrolidine-1-carbonyl)-2-methyl-propyl]-carbamic acid methyl ester dihydrochloride] | 23 | 1.92 | 12.6 | 32 | 8.5 | 5.9 | 22.5 | 19.8 |  |  |  |  | bioavailability [8]: 31%
2 | COC(=O)N[C@H](C(=O)N1CCC[C@H]1c1ncc(-c2ccc(C#CC#Cc3cnc([C@@H]4CCCN4C(=O)[C@H](NC(=O)OC)c4ccccc4)[nH]3)c(-c3ccc(N(C)C)cc3)c2)[nH]1)C(C)C.Cl.Cl.Cl [2(14)•2HCl, [(S)-1-((S)-2-{5-[4′-Dimethylamino-6-(4-{2-[(S)-1-((R)-2-methoxycarbonylamino-2-phenyl-acetyl)-pyrrolidin-2-yl]-3H-imidazol-4-yl}-buta-1,3-diynyl)-biphenyl-3-yl]-1H-imidazol-2-yl}-pyrrolidine-1-carbonyl)-2-methyl-propyl]-carbamic acid methyl ester troihydrochloride] |  |  |  |  |  |  |  |  |  |  |  |  | EC50 ([1]; Huh7 replicon cells, mean, read-out: gT3a, EC50 (pM) mean): 38.5 pM; EC50 ([2]; 10% FBS, read-out: gT1b 10% FBS, EC50 (pM) mean): 1.51 pM; EC50 ([2]; 40% NHS, read-out: gT1b 40% NHS, EC50 (pM) mean): 13 pM; Cytotox gT1b 10% FBS max. inh. [9]: 23%; EC50 ([4]; Huh7 replicon cells, mean, read-out: gT4a, EC50 (pM) mean): 10.8 pM; EC50 [5]: 12.8 pM; EC50 [6]: 138 pM; EC50 ([7]; Huh7 replicon cells, mean, read-out: gT5a, EC50 (pM) mean): 52 pM
3 | COC(=O)N[C@H](C(=O)N1CCC[C@H]1c1ncc(-c2ccc(-c3ccc(-c4cnc([C@@H]5CCCN5C(=O)[C@H](NC(=O)OC)c5ccccc5)[nH]4)cc3)c(N(C)c3ccccc3)c2)[nH]1)C(C)C [2(25)•2HCl, [(S)-1-((S)-2-{5-[4′-{2-[(S)-1-((R)-2-Methoxycarbonylamino-2-phenyl-acetyl)-pyrrolidin-2-yl]-3H-imidazol-4-yl}-2-(methyl-phenyl-amino)-biphenyl-4-yl]-1H-imidazol-2-yl}-pyrrolidine-1-carbonyl)-2-methyl-propyl]-carbamic acid methyl ester trihydrochloride] | 24.2 | 1.72 | 11.5 | 18 | 13.9 | 5.5 | 345 | 43.2 |  |  |  |  | 
4 | COC(=O)N[C@H](C(=O)N1CCC[C@H]1c1ncc(-c2cc(F)c(-c3ccc(-c4cnc([C@@H]5CCCN5C(=O)[C@H](NC(=O)OC)c5ccccc5)[nH]4)cc3)c(-c3ccccc3)c2)[nH]1)C(C)C [2(26)•2HCl, ((S)-1-{(S)-2-[5-(6′-Fluoro-4-{2-[(S)-1-((R)-2-methoxycarbonylamino-2-phenyl-acetyl)-pyrrolidin-2-yl]-3H-imidazol-4-yl}-[1,1′;2′,1″]terphenyl-4′-yl)-1H-imidazol-2-yl]-pyrrolidine-1-carbonyl}-2-methyl-propyl)-carbamic acid methyl ester dihydrochloride] |  | 3.2 | 14.5 | 39 | 7.9 | 3.1 | 30.3 | 14.3 |  |  |  |  | EC50 ([1]; Hepatitis C virus, GT3A, Huh-7, read-out: gT3a, EC50 (pM) mean, Huh7 replicon cells): 9.2 pM; EC50 ([1]; Huh7 replicon cells, mean, dihydrochloride, read-out: gT3a, EC50 (pM) mean): 9.8 pM
5 | COC(=O)N[C@H](C(=O)N1CCC[C@H]1c1ncc(-c2cc(C)c(-c3ccc(-c4cnc([C@@H]5CCCN5C(=O)[C@H](NC(=O)OC)c5ccccc5)[nH]4)cc3)c(-c3ccccc3)c2)[nH]1)C(C)C [2(27)•2HCl, ((S)-1-{(S)-2-[5-(4-{2-[(S)-1-((R)-2-Methoxycarbonylamino-2-phenyl-acetyl)-pyrrolidin-2-yl]-3H-imidazol-4-yl}-6′-methyl-[1,1′;2′,1″]terphenyl-4′-yl)-1H-imidazol-2-yl]-pyrrolidine-1-carbonyl}-2-methyl-propyl)-carbamic acid methyl ester dihydrochloride] | 25.2 | 5.1 | 14.5 | 31 | 12.3 | 7.9 | 203 | 25.8 |  |  |  |  | 
6 | COC(=O)N[C@H](C(=O)N1CCC[C@H]1c1ncc(C#CC#Cc2ccc(-c3cnc([C@@H]4CCCN4C(=O)[C@@H](NC(=O)OC)C(C)C)[nH]3)cc2)[nH]1)C(C)C [AV-4025, Hepavivir] |  |  |  |  |  |  |  |  | 51 | 3.4 | 59 | 12 | Bioavailability in rat, F, % [12]: 65.0%; EC50, pM HCV Genotype NS5A GT3a [13]: insufficient activities; EC50 [14]: 172 pM; EC50, pM HCV Genotype NS5A GT5a [14]: insufficient activities
7 | COC(=O)N[C@H](C(=O)N1CC2(CC2)C[C@H]1c1nc(-c2ccc3c(c2)C(F)(F)c2cc(-c4ccc5[nH]c([C@@H]6[C@H]7CC[C@H](C7)N6C(=O)[C@@H](NC(=O)OC)C(C)C)nc5c4)ccc2-3)c[nH]1)C(C)C [Ledipasvir] |  |  |  |  |  |  |  |  | 20.8 | 5 | 31 | 7 | EC50 ([10]; listed as Ledipasvir (GS-5885)): 20800 pM; EC50 [13]: 10.1 pM; EC50, pM HCV Genotype NS5A GT3a [13]: insufficient activities; EC50 ([13]; listed as Ledipasvir (GS-5885)): 10100 pM; EC50, pM HCV Genotype NS5A GT5a [14]: insufficient activities
8 | COC(=O)N[C@H](C(=O)N1CCC[C@H]1C(=O)Nc1ccc([C@@H]2CC[C@@H](c3ccc(NC(=O)[C@@H]4CCCN4C(=O)[C@@H](NC(=O)OC)C(C)C)cc3)N2c2ccc(C(C)(C)C)cc2)cc1)C(C)C [Ombitasvir] |  |  |  |  |  |  |  |  | 12.4 | 5 | 14.1 | 1.7 | EC50 [13]: 19.3 pM; EC50 [14]: 4.3 pM
